Source: US10143747B2, “Breast cancer therapeutics” (IMBA—INSTITUT FÜR MOLEKULARE BIOTECHNOLOGIE GMBH, priority 2010, dated 2018)

System: mammary epithelial cells
Experiment: Epithelial proliferation in mammary glands by in situ Ki67 immunostaining
Type: in vivo, mouse
Description: a,b, Induction of RANKL expression by the progesterone-derivative MPA. Nulliparous wild type females were s.c. implanted with slow-release MPA pellets or treated with surgery sham. a, RANKL mRNA was determined in purified mammary epithelial cells by qRT-PCR three days after implantation. Data are shown as fold change compared to sham treatment (+/−sem) (n=3). b, In situ […] immunostaining of progesterone receptor (PR, red) and RANKL (green) in mammary epithelial cells after 3d MPA treatment. c, Induction of soluble RANKL protein assayed on isolated mammary gland epithelial cells from control, but not in prolactin receptor mutant (PRL-R KO) females on day 3 after s.c. MPA implantation. Mammary glands from sham operated control litter-mates and PRL-R KO females are shown as controls. d, Epithelial proliferation in mammary glands of control littermates and RANK^Δmam females 3 days after sham treatment and MPA implantation. Proliferation was determined by in situ Ki67 immunostaining. e,f, Marked increase of the stem cell-enriched CD24^+CD49^high population (MaSC) in MPA-treated mammary glands in control but not in RANK^Δmam mammary glands. e, Representative FACS profiles showing CD24 and CD49 expression of lineage negative (CD31^− (endothelial cells) CD45^− (hematopoietic cells) […] (erythroid cells)) of mammary MaSCs from MPA- or sham-treated 8-week old virgin females. f, Quantification of MaSC-enriched CD24^+CD49^high population from mammary glands of MPA- or sham-treated virgin RANK^Δmam and littermate control females. For all MaSCs experiments mice were treated with MPA for 3 days. n=4 per group+/−sem. *P<0.05; ***P<0.001 (Student's t-test).
At least 1000 mammary gland epithelial cells were counted per mouse. n=3 mice per genotype. **P<0.005; ***P<0.001 (Student's t-test). b, Quantification of in situ Ki67 immunostained cells per acinus from mammary glands of control littermate and RANK^Δmam females on day 3 after MPA s.c. implantation. […] At least 1000 cells were counted per mammary gland. n=3 per genotype. In b, and c, data are shown as percentage of acini/ducts with low (<20% of epithelial cells are Ki67^+), medium (20-80% of epithelial cells are Ki67^+) and high (>80% of epithelial cells are Ki67^+) numbers of proliferating cells+/−sem. ***P<0.001; *P<0.03 (Student's t-test). d, Epithelial proliferation in mammary glands of control littermates and RANK^Δmam females 1 day after i.p. injection of PBS or RANKL (1 μg). Proliferation was determined in situ Ki67 immunostaining. Magnifications×40. e, Quantification of epithelial proliferation 1 day after i.p. injection of PBS or RANKL (1 μg). Mean percentages of Ki67 positive cells+/−sem are shown. *P<0.03; n=5 (Student's t-test).
For histological analysis, 5 μm sections were cut and stained with hematoxylin and eosin (H&E). Whole-mount staining of mammary glands was performed as described^8. For immunoperoxidase staining paraffin-embedded sections were […] and antigenic epitopes exposed using a 10 mM citrate buffer or microwaving. […] Histomorphometric indices (proliferation and apoptosis) were calculated as the number of positive epithelial cells divided by the total number of epithelial cells, with no fewer than 1000 nuclei for Ki67 stainings and no fewer than 5000 cells for active Caspase 3 staining counted per section. […]

CC(=O)O[C@]1(C(C)=O)CC[C@H]2[C@@H]3C[C@H](C)C4=CC(=O)CC[C@]4(C)[C@H]3CC[C@@]21C [MPA, medroxyprogesterone acetate]
MPA-induced proliferation of mammary epithelial cells (RANKΔmam females, 3 days after MPA implantation): significantly reduced
acini with very low proliferation rates (Ki67) (RANKΔmam females, day 3 after MPA s.c. implantation): more than 60%
acini with medium to high proliferation (Ki67) (control females, day 3 after MPA s.c. implantation): ~80%
proliferation of mammary epithelial cells (wild type, 3 days after MPA implantation): triggers massive proliferation

B1: RANKL: recombinant RANKL protein, ligand of RANK, used as stimulus (1 μg/ml or 1 μg i.p.) (protein, UniProt O35235 139-316, looked up)
Tumor necrosis factor ligand …: FSGAPAMMEGSWLDVAQRGKPEAQPFAHLTINAASIPSGSHKVTLSSWYHDRGWAKISNMTLSNGKLRVNQDGFYYLYANICFRHHETSGSVPTDYLQLMVYVVKTSIKIPSSHNLMKGGSTKNWSGNSEFHFYSINVGGFFKLRAGEEISIQVSNPSLLDPDQDATYFGAFKVQDID
proliferation of mammary gland epithelial cells (nulliparous females, 1 day after i.p. injection of RANKL (1 μg)): triggered proliferation of mammary gland epithelial cells via RANK
